Test system: total salivary bacterial pool (mixed oral bacteria)
Test: Malodour assay using lead acetate paper (H2S production by pooled salivary bacteria)
Assay type: cell-based
Parameters: concentration or dose not given beside the values
Conditions: pooled human saliva bacteria OD 0.4, 96 well plate, incubated overnight, ΔE of lead acetate paper; actives at the weight % of the composition
Procedure: Malodour Assay Using Lead Acetate Paper:
The following tests were done to find out the efficacy of different compositions inside and outside the scope of the present invention:
The early morning saliva from different volunteer (5 samples) were pooled and centrifuged (Eppendorf refrigerated centrifuge 5810R at 6300 rcf/11.5 G) for 10 minutes. After that, the Supernatant which is saliva and the pellet—mixed bacterial pool (oral bacteria e.g. Streptococcus. mitis, Streptococcus. mutans, Nisseria. flava, Rothia. dentocariosa etc.,) was separated. The saliva was then filter sterilized by passing through the 50 mL conical 0.2 μm PES sterile filter (VWR lab products limited). The OD of total salivary bacterial pool culture was adjusted to 0.4 by spectrophotometer (Shimadzu UV Spectrophotometer—UV-1800) for higher pool of bacteria which is required for the assay. The assay was set up in a 96 well plate with respective culture control and DMSO control. The total reaction volume was 200 μL/well which comprises of the following: 45 μl 0.1% L-cysteine-HCl (Sigma, C1276)+TSB (Bacto, 211825, 30 g/L)+50 μL sterile Saliva+75 μL Culture+30 μL active (as per the weight % disclosed in the following table 2)+sterile distilled water.
Then the actives at desired concentration were added and the remaining volume was adjusted with sterile distilled water. After that, the wells were mixed well, and lead acetate filter was placed above the wells to capture the H2S released by the bacteria. […] The intensity of the spots was measured using a LAB reader (Minolta spectrophotometer CM 2600D). The colour reading was expressed in LAB, L* defines lightness, A* denotes the red/green value and B* the yellow/blue value. Then ΔL, ΔA and ΔB is calculated using this formula ΔL=L control−L sample, ΔA=L control−L sample, AB=L control−L sample. The total colour difference which is expressed as ΔE is calculated using this formula ΔE=√{square root over (((ΔL)^2+(ΔA)^2+(ΔB)^2))}. […] The total fold change of H2S inhibition over the control was calculated for the individual actives.

| SMILES | Fold Change (total fold change of H2S inhibition over the control) |
| --- | --- |
| C=CCc1ccc(O)c(-c2ccc(O)c(CC=C)c2)c1 [C, honokiol] | 1.5 ± 1.8 |
| C=CCc1ccc(O)c(-c2ccc(O)c(CC=C)c2)c1 [B, honokiol] | 1.6 ± 1.8 |
| CC(O)CN(CCN(CC(C)O)CC(C)O)CC(C)O (stereo not drawn) [Example A, tetrahydroxypropyl ethylenediamine] | 0.9±0.3 |

From US12311044B2, “Antimicrobial composition” (priority 2018, dated 2025)
